Publication doi:10.1101/670703v1 (biorxiv, 2019)

How the values were obtained:
RelTt = target: T1, RelTt (Thermus thermophilus, UniProt Q5SHL3); assay: ppGpp synthetase activity; assay type: biochemical; settings: enzyme alone (also with 70S IC and deacylated tRNAVal)
T1 sequence (Q5SHL3 1-727): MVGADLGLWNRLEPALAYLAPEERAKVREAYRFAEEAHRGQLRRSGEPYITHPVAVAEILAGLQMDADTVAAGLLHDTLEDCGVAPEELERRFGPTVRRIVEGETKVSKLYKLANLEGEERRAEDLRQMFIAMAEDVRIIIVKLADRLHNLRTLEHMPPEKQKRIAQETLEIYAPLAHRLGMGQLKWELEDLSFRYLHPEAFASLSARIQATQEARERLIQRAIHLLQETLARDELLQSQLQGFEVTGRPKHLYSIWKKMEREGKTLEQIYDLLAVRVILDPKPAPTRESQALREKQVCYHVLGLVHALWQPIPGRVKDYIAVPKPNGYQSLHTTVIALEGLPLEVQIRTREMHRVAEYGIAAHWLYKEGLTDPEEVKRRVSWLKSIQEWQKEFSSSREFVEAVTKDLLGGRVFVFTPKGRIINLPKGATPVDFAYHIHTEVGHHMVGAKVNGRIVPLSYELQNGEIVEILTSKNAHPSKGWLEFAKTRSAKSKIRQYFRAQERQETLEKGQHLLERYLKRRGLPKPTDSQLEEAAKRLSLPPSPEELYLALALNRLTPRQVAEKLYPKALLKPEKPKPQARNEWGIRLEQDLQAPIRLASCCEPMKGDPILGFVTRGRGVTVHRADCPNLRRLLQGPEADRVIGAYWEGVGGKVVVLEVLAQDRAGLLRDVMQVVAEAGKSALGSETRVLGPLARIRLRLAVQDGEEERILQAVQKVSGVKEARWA

RelTt^NTD = target: T2, RelTt^NTD (Thermus thermophilus, UniProt Q5SHL3); assay: isothermal titration calorimetry; assay type: binding
T2 sequence (Q5SHL3 1-355): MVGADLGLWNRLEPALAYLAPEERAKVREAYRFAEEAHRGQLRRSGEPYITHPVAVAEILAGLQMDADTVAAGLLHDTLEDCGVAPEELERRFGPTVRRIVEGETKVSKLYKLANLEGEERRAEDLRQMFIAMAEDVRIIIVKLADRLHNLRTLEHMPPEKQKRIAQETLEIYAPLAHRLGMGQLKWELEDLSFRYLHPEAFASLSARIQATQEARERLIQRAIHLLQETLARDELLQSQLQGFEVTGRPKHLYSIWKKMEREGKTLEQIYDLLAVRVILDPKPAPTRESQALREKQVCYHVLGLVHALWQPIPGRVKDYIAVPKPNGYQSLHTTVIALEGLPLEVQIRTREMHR

Row | ppGpp synthetase activity (RelTt) | Kd (RelTt^NTD) | Compound
1 | ppGpp synthetase activity of RelTt | – | Nc1nc2c(ncn2[C@@H]2O[C@H](COP(=O)(O)OP(=O)(O)O)[C@@H](OP(=O)(O)OP(=O)(O)O)[C@H]2O)c(=O)[nH]1 [ppGpp]
2 | – | ~50 µM | Nc1ncnc2c1ncn2[C@@H]1O[C@H](COP(=O)(O)CP(=O)(O)OP(=O)(O)O)[C@@H](O)[C@H]1O [APCPP]
